# Test results from publication PMC5394417, “Investigating the molecular mechanism of positive and negative allosteric modulators in the calcium-sensing receptor dimer” (Scientific Reports, 2017).
# Target: T1, HA-D190A CaSR mutant (Rattus norvegicus, UniProt P48442, D190A)
# T1 construct: mGluR5 signal peptide (N); expressed in transfected cells; host or cells: HEK293T
# T1 sequence (P48442 20-1079 D190A): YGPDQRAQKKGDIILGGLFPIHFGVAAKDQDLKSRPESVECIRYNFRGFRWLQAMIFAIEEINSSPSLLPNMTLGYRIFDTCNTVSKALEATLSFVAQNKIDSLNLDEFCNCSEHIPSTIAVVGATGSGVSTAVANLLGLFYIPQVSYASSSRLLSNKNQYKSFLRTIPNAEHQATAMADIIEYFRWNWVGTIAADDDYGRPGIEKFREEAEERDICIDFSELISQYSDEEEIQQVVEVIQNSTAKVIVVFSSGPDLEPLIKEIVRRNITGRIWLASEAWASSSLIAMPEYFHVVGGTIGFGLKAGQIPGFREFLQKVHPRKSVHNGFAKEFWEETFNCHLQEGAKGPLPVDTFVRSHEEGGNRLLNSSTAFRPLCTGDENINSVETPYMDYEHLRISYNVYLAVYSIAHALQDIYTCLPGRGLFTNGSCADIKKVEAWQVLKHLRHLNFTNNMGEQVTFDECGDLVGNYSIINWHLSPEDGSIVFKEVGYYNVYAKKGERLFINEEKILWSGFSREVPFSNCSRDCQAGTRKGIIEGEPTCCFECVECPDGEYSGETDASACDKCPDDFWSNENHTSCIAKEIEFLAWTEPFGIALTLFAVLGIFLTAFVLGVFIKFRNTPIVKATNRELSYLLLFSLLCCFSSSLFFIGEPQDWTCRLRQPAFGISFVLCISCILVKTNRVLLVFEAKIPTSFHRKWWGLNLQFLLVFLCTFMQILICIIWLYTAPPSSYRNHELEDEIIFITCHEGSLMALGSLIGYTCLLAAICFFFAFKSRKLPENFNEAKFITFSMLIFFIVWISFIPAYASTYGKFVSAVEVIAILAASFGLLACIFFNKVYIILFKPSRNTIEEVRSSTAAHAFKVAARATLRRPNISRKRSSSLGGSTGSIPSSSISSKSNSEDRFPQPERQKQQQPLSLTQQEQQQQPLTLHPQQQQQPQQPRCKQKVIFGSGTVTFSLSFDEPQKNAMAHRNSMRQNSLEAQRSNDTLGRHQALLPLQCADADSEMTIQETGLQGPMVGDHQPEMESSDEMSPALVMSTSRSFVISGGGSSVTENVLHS
# Assay: IP-One assay, HEK293T transiently transfected
# Format: cell-based
structure (smiles),measurement,setting,value
[Ca+2] [Ca^2+],EC50,Ca^2+ alone,17.8 mM
same,Hill coefficient ± S.E.M.,Ca^2+ alone,3.77 ± 0.39
same,pEC50 ± S.E.M.,Ca^2+ alone,1.75 ± 0.01
same,Max ± S.E.M.,normalized to maximum response of WT CaSR,110 ± 11%
